Activity calls are given as the source filed them. The calls are words filed in the database; no cut-off is given here.
Columns and labels:
[1] = target: T1, Sodium-dependent dopamine transporter (Homo sapiens, UniProt Q01959); assay: Displacement of [125I]RTI55 from human recombinant DAT expressed in HEK293 cells; type: cell-based
[2] = target: T2, Sodium-dependent serotonin transporter (Homo sapiens, UniProt P31645); assay: biochemical; type: cell-based, HEK293
[3] = target: T1, Sodium-dependent dopamine transporter; assay: Inhibition of [3H]DA from human recombinant DAT expressed in HEK293 cells; type: cell-based
[4] = target: T2, Sodium-dependent serotonin transporter; assay: Inhibition of [3H]5HT from human recombinant SERT expressed in HEK293 cells; type: cell-based
[5] = target: T3, Sodium-dependent noradrenaline transporter (Homo sapiens, UniProt P23975); assay: Inhibition of [3H]NE from human recombinant NET expressed in HEK293 cells; type: cell-based
[6] = target: T3, Sodium-dependent noradrenaline transporter; assay: Displacement of [125I]RTI55 from human recombinant NET expressed in HEK293 cells; type: cell-based
[7] = target: T4, 3',5'-cyclic-AMP phosphodiesterase 4D (Homo sapiens, UniProt Q08499); assay: Inhibition of PDE4D2 by rapid fluorescence based assay
[8] = target: T4, 3',5'-cyclic-AMP phosphodiesterase 4D; assay: Inhibition of PDE4D2 at 100 uM by rapid fluorescence based assay

T4 sequence (Q08499 whole entry): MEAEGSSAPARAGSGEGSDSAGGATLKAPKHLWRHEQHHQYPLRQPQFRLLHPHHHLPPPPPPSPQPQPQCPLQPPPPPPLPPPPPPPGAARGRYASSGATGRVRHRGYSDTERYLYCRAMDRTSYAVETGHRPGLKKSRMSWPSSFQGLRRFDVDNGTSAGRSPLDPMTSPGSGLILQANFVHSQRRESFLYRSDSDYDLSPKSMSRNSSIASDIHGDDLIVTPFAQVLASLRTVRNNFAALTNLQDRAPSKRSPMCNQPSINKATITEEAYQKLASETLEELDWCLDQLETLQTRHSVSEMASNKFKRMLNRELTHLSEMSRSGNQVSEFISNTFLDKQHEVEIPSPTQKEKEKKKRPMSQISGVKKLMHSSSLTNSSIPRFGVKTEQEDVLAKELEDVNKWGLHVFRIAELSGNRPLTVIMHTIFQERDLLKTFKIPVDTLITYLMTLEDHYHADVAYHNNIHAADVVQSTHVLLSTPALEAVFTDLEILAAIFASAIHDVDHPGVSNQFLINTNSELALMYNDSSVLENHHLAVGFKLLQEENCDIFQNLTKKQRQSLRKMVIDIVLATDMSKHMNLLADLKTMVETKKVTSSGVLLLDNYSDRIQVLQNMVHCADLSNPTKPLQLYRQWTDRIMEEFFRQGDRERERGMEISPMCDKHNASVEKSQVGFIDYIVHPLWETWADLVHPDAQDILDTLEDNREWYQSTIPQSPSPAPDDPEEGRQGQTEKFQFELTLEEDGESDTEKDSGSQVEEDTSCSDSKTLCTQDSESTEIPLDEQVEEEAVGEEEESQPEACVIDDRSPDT
T3 sequence (P23975 whole entry): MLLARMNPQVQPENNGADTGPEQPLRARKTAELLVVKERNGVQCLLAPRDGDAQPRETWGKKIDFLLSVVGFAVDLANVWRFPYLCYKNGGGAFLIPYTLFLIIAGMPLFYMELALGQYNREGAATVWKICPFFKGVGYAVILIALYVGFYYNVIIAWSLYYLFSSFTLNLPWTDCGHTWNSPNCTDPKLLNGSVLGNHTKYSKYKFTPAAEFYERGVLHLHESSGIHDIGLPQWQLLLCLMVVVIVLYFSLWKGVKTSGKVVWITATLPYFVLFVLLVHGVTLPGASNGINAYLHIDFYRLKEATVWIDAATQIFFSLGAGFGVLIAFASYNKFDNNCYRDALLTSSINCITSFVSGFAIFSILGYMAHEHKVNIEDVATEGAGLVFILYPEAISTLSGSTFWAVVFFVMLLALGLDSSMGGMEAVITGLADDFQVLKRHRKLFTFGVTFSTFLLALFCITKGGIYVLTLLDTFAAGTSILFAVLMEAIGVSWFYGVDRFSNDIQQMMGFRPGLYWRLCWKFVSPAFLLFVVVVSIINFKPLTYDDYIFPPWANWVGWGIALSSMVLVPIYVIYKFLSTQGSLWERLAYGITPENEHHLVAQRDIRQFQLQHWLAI
T1 sequence (Q01959 whole entry): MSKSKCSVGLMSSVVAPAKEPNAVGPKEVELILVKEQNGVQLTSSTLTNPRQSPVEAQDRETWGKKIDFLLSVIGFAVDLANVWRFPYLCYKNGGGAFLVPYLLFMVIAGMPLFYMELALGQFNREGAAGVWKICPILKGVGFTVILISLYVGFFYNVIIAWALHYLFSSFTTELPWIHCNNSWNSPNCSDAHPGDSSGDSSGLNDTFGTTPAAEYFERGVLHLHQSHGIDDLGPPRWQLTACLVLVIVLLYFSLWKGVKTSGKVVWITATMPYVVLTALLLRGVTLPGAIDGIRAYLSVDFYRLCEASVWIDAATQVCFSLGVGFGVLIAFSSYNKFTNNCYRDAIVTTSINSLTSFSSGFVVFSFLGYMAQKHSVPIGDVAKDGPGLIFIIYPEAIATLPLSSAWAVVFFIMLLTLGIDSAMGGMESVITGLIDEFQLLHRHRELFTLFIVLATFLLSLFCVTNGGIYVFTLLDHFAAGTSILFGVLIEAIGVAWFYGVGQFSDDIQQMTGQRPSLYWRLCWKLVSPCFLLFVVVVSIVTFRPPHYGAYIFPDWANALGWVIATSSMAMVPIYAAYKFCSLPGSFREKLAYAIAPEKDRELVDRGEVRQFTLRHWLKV
T2 sequence (P31645 whole entry): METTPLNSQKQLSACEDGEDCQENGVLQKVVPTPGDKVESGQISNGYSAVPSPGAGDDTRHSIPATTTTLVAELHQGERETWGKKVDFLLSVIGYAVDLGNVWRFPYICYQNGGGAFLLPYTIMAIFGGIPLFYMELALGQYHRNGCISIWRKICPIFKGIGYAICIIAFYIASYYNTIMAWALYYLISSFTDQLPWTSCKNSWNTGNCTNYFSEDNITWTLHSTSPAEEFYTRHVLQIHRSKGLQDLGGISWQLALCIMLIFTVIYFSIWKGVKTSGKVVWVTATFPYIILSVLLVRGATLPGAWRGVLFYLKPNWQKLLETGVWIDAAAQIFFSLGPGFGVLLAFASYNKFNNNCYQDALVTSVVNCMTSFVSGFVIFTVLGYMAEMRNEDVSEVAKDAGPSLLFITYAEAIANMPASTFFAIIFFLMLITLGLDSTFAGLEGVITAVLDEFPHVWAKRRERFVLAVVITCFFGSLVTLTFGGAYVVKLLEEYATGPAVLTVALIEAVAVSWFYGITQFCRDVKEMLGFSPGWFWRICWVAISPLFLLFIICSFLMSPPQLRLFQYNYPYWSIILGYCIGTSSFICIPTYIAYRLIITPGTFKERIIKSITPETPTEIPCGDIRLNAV

| Compound | Ki [1] [µM] | Ki [2] [µM] | IC50 [3] [µM] | IC50 [4] [µM] | IC50 [5] [µM] | Ki [6] [µM] | IC50 [7] [µM] | Activity [8] |
| --- | --- | --- | --- | --- | --- | --- | --- | --- |
| COc1ccc(C2=NN(CCCCCNCC[C@H](Oc3ccc(C(F)(F)F)cc3)c3ccccc3)C(=O)C3CC=CCC23)cc1OC (stereo not given in full) | 2.72 | 0.3 | 5.98 | 0.042 | 6.55 | 4.6 | 0.253 | – |
| NCC[C@H](Oc1ccc(C(F)(F)F)cc1)c1ccccc1 [SEPROXETINE] | 4.54 | – | 6.49 | – | 2.81 | 6.19 | ≥ 100 | – |
| COc1ccc(C2=NNC(=O)C3CC=CCC23)cc1OC (stereo not given) | > 100 | > 100 | > 100 | > 100 | > 100 | > 100 | 0.213 | – |

Continued, values first:

| Ki [1] [µM] | Ki [2] [µM] | IC50 [3] [µM] | IC50 [4] [µM] | IC50 [5] [µM] | Ki [6] [µM] | IC50 [7] [µM] | Activity [8] | Compound |
| --- | --- | --- | --- | --- | --- | --- | --- | --- |
| > 100 | > 100 | > 100 | > 100 | – | – | – | – | COc1ccc(C2=NN(CCCCCBr)C(=O)C3CC=CCC23)cc1OC (stereo not given) |
| 4.49 | 0.065 | > 7 | 0.173 | 6.81 | 6.57 | 0.106 | – | COc1ccc(C2=NN(CCCCCNCC[C@@H](Oc3ccc(C(F)(F)F)cc3)c3ccccc3)C(=O)C3CC=CCC23)cc1OC (stereo not given in full) |
| 3.66 | – | 7.13 | – | 2 | 7.49 | – | inactive | NCC[C@@H](Oc1ccc(C(F)(F)F)cc1)c1ccccc1 |
